Results as given in publication PMC12677844, “Profiling Inhibitor Scaffolds for the Cancer Target Jumonji‐C Domain‐Containing Protein 6” (Chemmedchem, 2025).
Values joined by “and” are separate entries in the source; they are usually repeats but may differ in a detail not shown here. Identical values can stand only once. Like-named read-outs stand apart in the source and are kept apart here.

Assays:
full‐length His6‐JMJD6 = molecular target: T1, full‐length His6‐JMJD6 (Homo sapiens, UniProt Q6NYC1); experiment: JMJD6 SPE–MS inhibition assay (BRD4_511–550 hydroxylation); assay type: biochemical; settings: for IC50: His6‐JMJD6 0.05 µM, 2OG 100 µM, FAS 2 µM, BRD4_511–550 1 µM, L‐ascorbic acid 100 µM, means of two independent runs (mean ± SD)
T1 construct: Isolated recombinant full‐length human JMJD6 with a N‐terminal His6‐tag; made in house; host or cells: Escherichia coli BL21 (DE3)
Protocol: Co‐substrate concentrations were chosen based on reported SPE–MS kinetic parameters for the JMJD6‐catalyzed BRD4_511–550 monohydroxylation reaction.^[ [56] ^] […] Since JMJD6 has a relatively high 2OG Kmapp , the JMJD6 SPE–MS inhibition assay employs a 2OG concentration which is relatively high compared to most other 2OG oxygenase SPE–MS assays, possibly more accurately reflecting cellular 2OG concentrations.^[ [59] ^, [60] ^] Likely saturating concentrations of LAA (100 µM) and FAS (2 µM) were used.
JMJD6 catalyzes oxidation of BRD4_511–550 to give multiple hydroxylation products,^[ [56] ^] an observation potentially complicating data analysis.
Isolated recombinant full‐length human JMJD6 with a N‐terminal His6‐tag was produced in Escherichia coli BL21 (DE3) cells and purified as reported.^[ [1] ^, [56] ^] […] Purified His6‐JMJD6 was stored at −78 °C; fresh aliquots were used for all JMJD6 assays.
DMSO and 2,4‐PDCA (final assay concentration: 500 µM) were used as negative and positive inhibition controls, respectively. Each reaction was performed in technical duplicates in adjacent wells of the assay plates.
Cosubstrate/cofactor stock solutions (L‐ascorbic acid, LAA: 50 mM in Milli‐Q Ultrapure grade water; 2‐oxoglutarate, 2OG: 20 mM in Milli‐Q Ultrapure grade water; ammonium iron(II) sulfate hexahydrate, FAS, (NH4)2Fe(SO4)2·6H2O: […] in 20 mM aqueous HCl diluted to 1 mM in Milli‐Q Ultrapure grade water) were freshly prepared from commercial solids (Sigma–Aldrich) on the day of the experiment. BRD4_511–550 ([…]) was synthesized by solid‐phase peptide synthesis and was purified by GL Biochem (Shanghai) Ltd (Shanghai, China). Stock solutions of BRD4_511–550 (10 mM in water) were stored at −20 °C.
The plates were centrifuged (1000 rpm, 5 s) and incubated for 15 min at ambient temperature. The substrate mixture (2 × final concentration), containing BRD4_511–550 (2 µM), LAA (200 µM), 2OG (200 µM), and FAS (4 µM) in Tris buffer (50 mM; pH 7.5), was then dispensed across the plates (25 µL per well) using the multidrop dispenser. The plates were centrifuged (1000 rpm, 5 s) and incubated for 20 min at ambient temperature. The enzyme reaction was then stopped by the addition of 10%v/v aqueous formic acid (5 μL per well) using a 16‐channel electronic pipette (ThermoFischer Scientific). The plates were then centrifuged (1000 rpm, 30 s) and analyzed by MS.
Assay samples were aspirated under vacuum for 0.4 s and then loaded onto a C4 SPE cartridge. After loading, the C4 SPE cartridge was washed with 0.1%v/v aqueous formic acid to remove nonvolatile buffer salts (5 s, 1.5 mL min^−1). BRD4_511–550 and the corresponding hydroxylated product peptides were eluted from the SPE cartridge with 0.1%v/v aqueous formic acid in 75/25v/v acetonitrile/water into the mass spectrometer (5 s, 1.6 mL min^−1); the SPE cartridge was subsequently re‐equilibrated with 0.1%v/v aqueous formic acid (1 s, 1.25 mL min^−1).
Peaks corresponding to the m/z + 5 charge states of BRD4_511–550 and the corresponding mono‐ and dihydroxylated product peptides were extracted from the ion chromatogram and integrated using RapidFire Integrator 4.3.0 (Agilent).
From the raw data, dose–response curves (normalized to the 2,4‐PDCA and DMSO controls) were obtained by nonlinear regression (GraphPad Prism 5), which were used to determine IC50 values.

JMJD6 [1] = system: JMJD6; set-up: method as in PMID 34581506; settings: 10 µM JMJD6, 100 µM LUC7L2_267–278; ref [35]; read-out: reported IC50 (JMJD6, MALDI‐TOF MS) (converted); cited from earlier work
JMJD6 [2] = system: JMJD6; set-up: method as in earlier work; settings: 10 µM JMJD6, 100 µM LUC7L2_267–278; ref [22]; read-out: reported IC50 (JMJD6, LC–MS) (converted); cited from earlier work
JMJD6 [3] = system: JMJD6; set-up: method as in PMID 33991627; settings: substrate other than BRD4_511–550, 2OG 10 μM, JMJD6 10 µM; ref [33]; read-out: reported IC50 (JMJD6, Succinate‐Glo) (converted); cited from earlier work
PHD2 = system: PHD2; set-up: method as in PMID 39291299; settings: isolated PHD2; ref [100]; cited from earlier work
JMJD6 [4] = system: JMJD6; set-up: method as in PMID 31637004; settings: assay conditions not described; ref [20]; read-out: reported IC50 (JMJD6) (converted); cited from earlier work
JMJD6 [5] = system: JMJD6; set-up: method as in PMID 35969736; settings: Succinate‐Glo and MALDI‐TOF assays; ref [31]; read-out: reported IC50 (JMJD6 lysine hydroxylation); cited from earlier work
JMJD6 [6] = system: JMJD6; set-up: method as in PMID 31857835; settings: fluorescence‐based assay; ref [32]; read-out: reported IC50 (JMJD6‐catalyzed histone dimethylarginine N‐demethylation); cited from earlier work

Structure (SMILES)	IC50 (full‐length His6‐JMJD6; read-out: IC50 (JMJD6, SPE–MS))	IC50 (JMJD6 [1])	further results
O=C(O)c1ccnc(C(=O)O)c1 [2,4‐PDCA, pyridine‐2,4‐dicarboxylic acid]	~1.6 µM and 1.6 µM	~13 µM and 13 µM	IC50 (JMJD6 [2]): ~5.4 µM and 5.4 µM
O=C(N/N=C/c1c(O)ccc2ccccc12)c1ccncc1 [AS‐8351]	~6.9 µM and 6.9 µM	–	–
O=C(O)Cc1csc(=NC(=O)CS(=O)(=O)Cc2ccc3ccccc3c2)n1O [BNS]	~0.16 µM and 0.16 µM	–	–
CC(C)c1c(-c2ccccc2)[nH]c2c(C#N)cnn2c1=O [CPI‐455]	> 50 µM	–	–
O=C(O)CC(O)(CC(=O)O)C(=O)O [Citrate]	> 50 µM	987 µM	–
O=C(O)CCC(=O)NO [Compound 1]	~3.6 µM and 3.6 µM	25 µM	–
Cn1ccc(-c2cc(C(=O)OCC(F)(F)F)ccn2)n1 [Compound 7p]	~4.2 µM and 4.2 µM	–	IC50 (JMJD6 [3]): 0.68 µM
Cn1ccc(-c2cc(C(=O)O)ccn2)n1 [Compound 10a]	~0.07 µM and 0.07 µM	–	fold more potent than Compound 7p in inhibiting JMJD6 (full‐length His6‐JMJD6; SPE–MS IC50 comparison): ≈ 60 fold; ligand efficiency (LE) (full‐length His6‐JMJD6; from JMJD6 SPE–MS potency): 0.67; fold less potent in Succinate‐Glo assay than in SPE–MS assay (full‐length His6‐JMJD6; reported Succinate‐Glo IC50 versus SPE–MS IC50): ≈ 25 fold; IC50 (JMJD6 [3]): ~1.7 µM and 1.7 µM
O=C(O)c1ccncc1NCc1ccco1 [Compound 34]	~2.6 µM and 2.6 µM	–	–
CC(C)(NC(=O)c1c(O)c2ccccc2n(OCc2cscn2)c1=O)C(=O)O [Compound 48]	~7.1 µM and 19 µM	–	–
CN(C)NC(=O)CCC(=O)O [Daminozide]	–	94 µM	IC50 (full‐length His6‐JMJD6; IC50 (JMJD6, SPE–MS)): > 50 µM
O=C(O)CNC(=O)C1C(=O)N(C2CCCCC2)C(=O)N(C2CCCCC2)C1=O [Daprodustat]	–	10 µM	IC50 (full‐length His6‐JMJD6; IC50 (JMJD6, SPE–MS)): ~28 µM and 28 µM
O=C(O)CNC(=O)c1c(O)c2ccccc2n(OCC2CC2)c1=O [Desidustat]	~2.7 µM and 2.7 µM	–	IC50 (PHD2): 1.3 µM
O=C(O)CC[C@@H](O)C(=O)O [D‐2‐Hydroxyglutarate]	> 50 µM	622 µM	–
O=c1c2ccccc2[se]n1-c1ccccc1 [Ebselen]	> 50 µM	–	–
O=C(O)CNC(=O)c1c(O)cc(CCc2ccccc2)n2ncnc12 [Enarodustat]	~1.2 µM and 1.2 µM	–	IC50 (PHD2): 0.38 µM
O=C(O)/C=C/C(=O)O [Fumarate]	> 50 µM	165 µM	–
O=C(O)CCNc1cc(N2CCc3ccccc3CC2)nc(-c2ccccn2)n1 [GSK‐J1]	> 50 µM	–	–
O=C(O)c1ccc(O)c2ncccc12 [IOX1]	~6.4 µM and 6.4 µM	~10 µM and 10 µM	–
O=C(O)CNC(=O)c1c(O)c2ccccc2n(Cc2ccccc2)c1=O [IOX2]	~19 µM and 7.1 µM	–	–
O=C(NCC1CCC(C(F)(F)F)CC1)c1cnc(-n2cccn2)cc1O (stereo not drawn) [IOX5]	> 50 µM	–	–

Structure (SMILES)	IC50 (full‐length His6‐JMJD6; read-out: IC50 (JMJD6, SPE–MS))	IC50 (JMJD6 [1])	further results
O=C(O)/C=C/C(=O)N(O)CCCCNCc1ccc(COC(=O)Nc2cccc3ccccc23)cc1 [JMJD histone demethylase inhibitor III]	~0.1 µM and 0.1 µM	–	–
O=C(O)c1cnn(-c2nc3cc(OC(F)(F)F)c(Cl)cc3[nH]2)c1 [JNJ‐42041935]	> 50 µM	–	–
CC(C)c1cc(C(=O)N2CC[C@@H](NC(=O)C3CC3)C2)[nH]n1 [KDM5A‐IN‐1]	> 50 µM	–	–
O=C(O)CC[C@H](O)C(=O)O [L‐2‐Hydroxyglutarate]	> 50 µM	871 µM	–
COc1ccc(C(NC(=O)c2cnc(-c3cccnn3)nc2O)c2ccc(OC)cc2)cc1 [MK‐8617]	> 50 µM	–	–
CN(C)CCCNC(=O)c1ccc(-c2cc(O)c3ncccc3c2)cc1 [ML324]	~1.4 µM and 1.4 µM	–	–
O=C(O)CC(O)C(=O)O (stereo not drawn) [Malate]	–	5100 µM	IC50 (full‐length His6‐JMJD6; IC50 (JMJD6, SPE–MS)): > 50 µM
C/C(=C\C(=O)O)C(=O)O [Mesaconate]	> 50 µM	–	–
O=c1c(-n2ccnn2)c[nH]n1-c1cc(N2CCOCC2)ncn1 [Molidustat]	~20 µM and 20 µM	74 µM	–
O=C(O)C(=O)N[C@H](Cc1ccccc1)C(=O)O [NOFD, N‐oxalyl‐D‐phenylalanine]	> 50 µM	–	–
O=C(O)CNC(=O)C(=O)O [NOG, N‐oxalylglycine]	> 50 µM	296 µM	–
O=C(O)CC(=O)C(=O)O [Oxaloacetate]	> 50 µM	204 µM	–
CC(=O)C(=O)O [Pyruvate]	> 50 µM	2380 µM	–
CN(c1ccccc1)c1ccc2c(c1)CCC[C@H]2CNc1cnccc1C(=O)O [QC6352]	~2.8 µM and 2.8 µM	–	–
Cc1nc(C(=O)NCC(=O)O)c(O)c2ccc(Oc3ccccc3)cc12 [Roxadustat]	> 50 µM	23 µM	–
Oc1ccnc(N/N=C/c2ccccc2O)n1 [SKLB325]	~6.7 µM and 6.7 µM	–	IC50 (JMJD6 [4]): 0.78 µM
O=C(O)CCC(=O)O [Succinate]	> 50 µM	261 µM	–
O=C(O)CNC(=O)C1=C(O)CCN(Cc2ccc(Oc3ccc(Cl)cc3)nc2)C1=O [TP0463518]	~1.1 µM and 1.1 µM	–	–
O=C(O)CNC(=O)c1ncc(-c2cccc(Cl)c2)cc1O [Vadadustat]	~17 µM and 17 µM	7 µM	–
Cc1ccc2oc(=O)c(-c3nc4cnccc4[nH]3)cc2c1 [WL12]	> 50 µM	–	IC50 (JMJD6 [5]): > 100 µM; IC50 (JMJD6 [6]): ~0.22 µM and 0.22 µM
